Assays:
[1] = system: HeLa cells; assay: DNA (pCMV-SPORT-βgal) transfection into HeLa cells: β-gal activity; conditions: for β-gal activity: HeLa; for effect of enhancer on nucleic-acid-transfecting performance and cytotoxicity, in words: enhancer added to liposome solution of Formulation Example 4, summary of Tables 13 and 14 (HeLa and HT1080)
Procedure: (§4) HeLa cells were inoculated into a 96-well plate (7,500 cells/100 μL/well), followed by culturing for about 24 hours. DNA (pCMV-SPORT-βgal) was diluted with a DMEM medium, to thereby prepare a DNA-diluted solution having a DNA concentration of 8 μg/mL (for the case of 200 ng/well). […] The thus-obtained solution or Lipofectamine 2000 as a positive control (product of Invitrogen) was diluted with a DMEM medium so that the amount of the reconstituted liposome solution or Lipofectamine 2000 added to cells was “Amount of liposomes added (μL/well)” shown in Table 9 or 10. Immediately after dilution, the DNA-diluted solution (25 μL) was added to and mixed with the liposome-diluted solution (25 μL), and the mixture was allowed to stand still at room temperature for 30 minutes, to thereby form a DNA/liposome complex. The DNA/liposome complex (50 μL) was added to the inoculated HeLa cells (about 70 to about 90% confluent), to thereby initiate transfection. After culturing at 37° C. and 5% CO2 for one hour, a 10% FBS/DMEM medium (100 μL) was added to the culture liquid, followed by culturing at 37° C. and 5% CO2 for about 21 hours.
The culture supernatant was removed, and the cells were washed with PBS(−). Thereafter, determination of β-galactosidase (hereinafter may be abbreviated as “β-gal”) activity, quantitative determination of protein, and viable cell counting were carried out as described below.
After complete removal of PBS through suction, a lysis buffer (30 μL) was added to the cells, and the mixture was stirred and then allowed to stand still at −80° C. for 30 minutes or longer for freezing. After rapid thawing in a water bath at 37° C., the mixture was again allowed to stand still at −80° C. for 30 minutes or longer for freezing, followed by rapid thawing in a water bath at 37° C. Thereafter, centrifugation was carried out (2,000 g×10 minutes), and the resultant supernatant (sample) (10 μL) was added to a 96-well microplate.
Determination of β-gal activity was carried out by means of a β-gal assay kit (product of Invitrogen). […] A 2-Me-containing cleavage buffer was added (50 μL/well) to the sample or each of the standard-diluted solutions (10 μL), and 4 mg/mL aqueous ONPG solution was added (17 μL/well), followed by incubation at 37° C. for 30 minutes. After completion of incubation, a stop buffer was added (120 μL/well) for termination of reaction, and absorbance was measured at 405 nm.
(§5) Each of the enhancers shown in Table 13 was diluted with a DMEM medium to different concentrations so that the amount of the enhancer finally added to cells was “Enhancer amount (μg/well)” shown in Table 13. […] The thus-diluted liposome solution was added to an equiamount of the above-diluted enhancer, followed by incubation at room temperature for 20 minutes. […] Subsequently, cytotoxicity was evaluated according to the aforementioned scores, and determination of β-gal activity, quantitative determination of protein, and viable cell counting were carried out.

[2] = system: HT1080 cells; assay: Cytotoxicity score under microscope after DNA transfection, HT1080 cells; assay type: cell-based; parameters: scale not given here
From the text: (§1) The procedure of Test Example 5 was repeated, except that HeLa cells were replaced with HT1080 cells.
(§2) The procedure of Test Example 7 was repeated, except that HeLa cells were replaced with HT1080 cells.

[3] = system: HeLa cells; assay: Cytotoxicity score under microscope after DNA transfection, HeLa cells; assay type: cell-based
Procedure: as §4, §5

[4] = system: HT1080 cells; assay: DNA (pCMV-SPORT-βgal) transfection into HT1080 cells: β-gal activity; assay type: cell-based
From the text: as §1, §2

[5] = system: HT1080 cells; assay: Viable cell counting (WST-1), cell survival rate, HT1080 cells; assay type: cell-based; conditions: Formulation Example 4 0.38 μL/well
Procedure: (§3) Viable cell counting was carried out by means of a Cell Counting Kit (product of Dojindo Laboratories) based on WST-1 assay. […] Thereafter, absorbance was measured at 450 nm. A cell count vs. A450 standard curve was prepared on the basis of a separately prepared dilution series of different numbers of inoculated cells, and the number of viable cells was estimated by use of the standard curve.
as §1, §2

[6] = system: HeLa cells; assay: Viable cell counting (WST-1), cell survival rate, HeLa cells; assay type: cell-based; conditions: Formulation Example 4 0.38 μL/well
Procedure: as §3

[7] = Formulation Example 4 0.38 μL/well, enhancer 0.00625 μg/well
[8] = Formulation Example 4 0.38 μL/well, enhancer 0.0125 μg/well
[9] = Formulation Example 4 0.38 μL/well, enhancer 0.025 μg/well
[10] = Formulation Example 4 0.38 μL/well, enhancer 0.05 μg/well
[11] = Formulation Example 4 0.38 μL/well, enhancer 0.1 μg/well
[12] = Formulation Example 4 0.75 μL/well, enhancer 0.00625 μg/well
[13] = Formulation Example 4 0.75 μL/well, enhancer 0.0125 μg/well
[14] = Formulation Example 4 0.75 μL/well, enhancer 0.025 μg/well
[15] = Formulation Example 4 0.75 μL/well, enhancer 0.05 μg/well
[16] = Formulation Example 4 0.75 μL/well, enhancer 0.1 μg/well
[17] = Formulation Example 4 0.38 μL/well, enhancer 2.5 μg/well
[18] = Formulation Example 4 0.38 μL/well, enhancer 5 μg/well
[19] = Formulation Example 4 0.38 μL/well, enhancer 10 μg/well
[20] = Formulation Example 4 0.38 μL/well, enhancer 20 μg/well
[21] = Formulation Example 4 0.38 μL/well, enhancer 40 μg/well
[22] = Formulation Example 4 0.38 μL/well, enhancer 6.25 μg/well
[23] = Formulation Example 4 0.38 μL/well, enhancer 12.5 μg/well
[24] = Formulation Example 4 0.38 μL/well, enhancer 25 μg/well
[25] = Formulation Example 4 0.38 μL/well, enhancer 50 μg/well
[26] = Formulation Example 4 0.38 μL/well, enhancer 100 μg/well
[27] = Formulation Example 4 0.75 μL/well, enhancer 6.25 μg/well
[28] = Formulation Example 4 0.75 μL/well, enhancer 12.5 μg/well
[29] = Formulation Example 4 0.75 μL/well, enhancer 25 μg/well
[30] = Formulation Example 4 0.75 μL/well, enhancer 50 μg/well
[31] = Formulation Example 4 0.75 μL/well, enhancer 100 μg/well
[32] = Formulation Example 4 0.38 μL/well, enhancer 0.625 μg/well
[33] = Formulation Example 4 0.38 μL/well, enhancer 1.25 μg/well
[34] = Formulation Example 4 0.75 μL/well, enhancer 0.625 μg/well
[35] = Formulation Example 4 0.75 μL/well, enhancer 1.25 μg/well
[36] = Formulation Example 4 0.75 μL/well, enhancer 2.5 μg/well
[37] = Formulation Example 4 0.75 μL/well, enhancer 5 μg/well
[38] = Formulation Example 4 0.75 μL/well, enhancer 10 μg/well

pronectin
β-gal activity [1, 7]: 23.3 mU/well | β-gal activity [1, 8]: 19.4 mU/well | β-gal activity [1, 9]: 15.5 mU/well | β-gal activity [1, 10]: 3.2 mU/well | β-gal activity [1, 11]: 0.8 mU/well | β-gal activity [1, 12]: 28.7 mU/well | β-gal activity [1, 13]: 25.1 mU/well | β-gal activity [1, 14]: 16.2 mU/well | β-gal activity [1, 15]: 6.2 mU/well | β-gal activity [1, 16]: 2.3 mU/well | effect of enhancer on nucleic-acid-transfecting performance and cytotoxicity, in words [1]: excellent effects | Cytotoxicity score [2, 7]: 1.5 | Cytotoxicity score [2, 8]: 1.0 | Cytotoxicity score [2, 9]: 0.5 | Cytotoxicity score [2, 10]: 1.0 | Cytotoxicity score [2, 11]: 1.0 | Cytotoxicity score [2, 12]: 3.0 | Cytotoxicity score [2, 13]: 3.0 | Cytotoxicity score [2, 14]: 2.5 | Cytotoxicity score [2, 15]: 2.5 | Cytotoxicity score [2, 16]: 2.0 | Cytotoxicity score [3, 7]: 2.0 | Cytotoxicity score [3, 8]: 2.0 | Cytotoxicity score [3, 9]: 2.0 | Cytotoxicity score [3, 10]: 1.5 | Cytotoxicity score [3, 11]: 2.0 | Cytotoxicity score [3, 12]: 4.0 | Cytotoxicity score [3, 13]: 3.5 | Cytotoxicity score [3, 14]: 3.5 | Cytotoxicity score [3, 15]: 3.0 | Cytotoxicity score [3, 16]: 3.0 | β-gal activity [4, 7]: 87.2 mU/well | β-gal activity [4, 8]: 70.2 mU/well | β-gal activity [4, 9]: 52.0 mU/well | β-gal activity [4, 10]: 3.3 mU/well | β-gal activity [4, 11]: 0.3 mU/well | β-gal activity [4, 12]: 102.6 mU/well | β-gal activity [4, 13]: 107.3 mU/well | β-gal activity [4, 14]: 92.1 mU/well | β-gal activity [4, 15]: 16.0 mU/well | β-gal activity [4, 16]: 4.4 mU/well

CCCC(=O)[O-].[Na+] [sodium butyrate]
Cell survival rate ([5]; enhancer 2.5 μg/well): 55% | Cell survival rate ([5]; enhancer 5 μg/well): 50% | Cell survival rate ([5]; enhancer 10 μg/well): 53% | Cell survival rate ([5]; enhancer 20 μg/well): 52% | Cell survival rate ([5]; enhancer 40 μg/well): 62% | β-gal activity [1, 17]: 20.4 mU/well | β-gal activity [1, 18]: 19.8 mU/well | β-gal activity [1, 19]: 18.7 mU/well | β-gal activity [1, 20]: 20.9 mU/well | β-gal activity [1, 21]: 26.7 mU/well | effect of enhancer on nucleic-acid-transfecting performance and cytotoxicity, in words [1]: excellent effects | Cytotoxicity score [2, 17]: 1.5 | Cytotoxicity score [2, 18]: 1.5 | Cytotoxicity score [2, 19]: 2.0 | Cytotoxicity score [2, 20]: 2.5 | Cytotoxicity score [2, 21]: 3.0 | Cytotoxicity score [3, 17]: 1.5 | Cytotoxicity score [3, 18]: 1.0 | Cytotoxicity score [3, 19]: 1.0 | Cytotoxicity score [3, 20]: 1.5 | Cytotoxicity score [3, 21]: 2.0 | Cell survival rate ([6]; enhancer 2.5 μg/well): 67% | Cell survival rate ([6]; enhancer 5 μg/well): 73% | Cell survival rate ([6]; enhancer 10 μg/well): 65% | Cell survival rate ([6]; enhancer 20 μg/well): 66% | Cell survival rate ([6]; enhancer 40 μg/well): 68% | β-gal activity [4, 17]: 45.0 mU/well | β-gal activity [4, 18]: 40.2 mU/well | β-gal activity [4, 19]: 37.3 mU/well | β-gal activity [4, 20]: 40.3 mU/well | β-gal activity [4, 21]: 45.6 mU/well

NCCCNCCCCNCCCN [Spermine]
β-gal activity [1, 22]: 0.8 mU/well | β-gal activity [1, 23]: 1.0 mU/well | β-gal activity [1, 24]: 0.2 mU/well | β-gal activity [1, 25]: 0.2 mU/well | β-gal activity [1, 26]: 0.1 mU/well | β-gal activity [1, 27]: 1.8 mU/well | β-gal activity [1, 28]: 0.1 mU/well | β-gal activity [1, 29]: 0.0 mU/well | β-gal activity [1, 30]: 0.1 mU/well | β-gal activity [1, 31]: 0.3 mU/well | Cytotoxicity score [2, 22]: 2.5 | Cytotoxicity score [2, 23]: 2.0 | Cytotoxicity score [2, 24]: 2.5 | Cytotoxicity score [2, 25]: 2.0 | Cytotoxicity score [2, 26]: 1.0 | Cytotoxicity score [2, 27]: 2.0 | Cytotoxicity score [2, 28]: 2.5 | Cytotoxicity score [2, 29]: 3.0 | Cytotoxicity score [2, 30]: 2.0 | Cytotoxicity score [2, 31]: 2.0 | Cytotoxicity score [3, 22]: 0.0 | Cytotoxicity score [3, 23]: 0.0 | Cytotoxicity score [3, 24]: 0.0 | Cytotoxicity score [3, 25]: 2.0 | Cytotoxicity score [3, 26]: 2.0 | Cytotoxicity score [3, 27]: 4.0 | Cytotoxicity score [3, 28]: 4.0 | Cytotoxicity score [3, 29]: 4.0 | Cytotoxicity score [3, 30]: 4.0 | Cytotoxicity score [3, 31]: 2.0 | β-gal activity [4, 22]: 31.1 mU/well | β-gal activity [4, 23]: 29.1 mU/well | β-gal activity [4, 24]: 34.9 mU/well | β-gal activity [4, 25]: 21.5 mU/well | β-gal activity [4, 26]: 6.8 mU/well | β-gal activity [4, 27]: 76.5 mU/well | β-gal activity [4, 28]: 64.6 mU/well | β-gal activity [4, 29]: 72.9 mU/well | β-gal activity [4, 30]: 10.9 mU/well | β-gal activity [4, 31]: 1.3 mU/well

protamine
β-gal activity [1, 32]: 30.4 mU/well | β-gal activity [1, 33]: 9.8 mU/well | β-gal activity [1, 17]: 4.8 mU/well | β-gal activity [1, 18]: 0.9 mU/well | β-gal activity [1, 19]: 0.1 mU/well | β-gal activity [1, 34]: 46.2 mU/well | β-gal activity [1, 35]: 26.3 mU/well | β-gal activity [1, 36]: 10.1 mU/well | β-gal activity [1, 37]: 3.1 mU/well | β-gal activity [1, 38]: 0.5 mU/well | effect of enhancer on nucleic-acid-transfecting performance and cytotoxicity, in words [1]: excellent effects | Cytotoxicity score [2, 32]: 1.5 | Cytotoxicity score [2, 33]: 1.5 | Cytotoxicity score [2, 17]: 1.0 | Cytotoxicity score [2, 18]: 0.5 | Cytotoxicity score [2, 19]: 0.5 | Cytotoxicity score [2, 34]: 2.5 | Cytotoxicity score [2, 35]: 2.0 | Cytotoxicity score [2, 36]: 2.0 | Cytotoxicity score [2, 37]: 2.0 | Cytotoxicity score [2, 38]: 1.0 | Cytotoxicity score [3, 32]: 1.5 | Cytotoxicity score [3, 33]: 0.5 | Cytotoxicity score [3, 17]: 0.5 | Cytotoxicity score [3, 18]: 0.5 | Cytotoxicity score [3, 19]: 0.5 | Cytotoxicity score [3, 34]: 3.0 | Cytotoxicity score [3, 35]: 1.0 | Cytotoxicity score [3, 36]: 0.5 | Cytotoxicity score [3, 37]: 0.5 | Cytotoxicity score [3, 38]: 0.5 | β-gal activity [4, 32]: 79.3 mU/well | β-gal activity [4, 33]: 61.5 mU/well | β-gal activity [4, 17]: 23.1 mU/well | β-gal activity [4, 18]: 4.1 mU/well | β-gal activity [4, 19]: 2.7 mU/well | β-gal activity [4, 34]: 103.9 mU/well | β-gal activity [4, 35]: 103.9 mU/well | β-gal activity [4, 36]: 49.8 mU/well | β-gal activity [4, 37]: 19.5 mU/well | β-gal activity [4, 38]: 15.1 mU/well

From patent US8920832B2, “Composition for nucleic acid transfection” (Hokkaido System Science Co., Ltd., priority 2006, dated 2014)
